65 compounds from the kinase profiling compilation of Christmann-Franck et al. (2016) can be followed below.

SGK1 (human), O00141 [S422D], sequence (O00141 whole entry S422D, looked up): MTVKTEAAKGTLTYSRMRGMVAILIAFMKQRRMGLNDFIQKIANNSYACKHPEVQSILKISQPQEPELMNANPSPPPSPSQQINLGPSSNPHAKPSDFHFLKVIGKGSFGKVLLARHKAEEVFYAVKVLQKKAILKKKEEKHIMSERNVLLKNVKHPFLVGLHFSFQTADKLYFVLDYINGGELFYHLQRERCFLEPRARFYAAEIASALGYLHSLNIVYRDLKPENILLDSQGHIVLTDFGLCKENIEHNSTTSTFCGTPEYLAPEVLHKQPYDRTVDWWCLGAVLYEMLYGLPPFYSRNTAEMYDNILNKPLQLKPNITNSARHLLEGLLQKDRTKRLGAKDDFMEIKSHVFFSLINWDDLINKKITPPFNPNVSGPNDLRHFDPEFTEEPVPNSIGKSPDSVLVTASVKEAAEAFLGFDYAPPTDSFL

The subject of the assay is SGK1 (human), O00141 [S422D]. Kind of assay: radiometric filter-binding kinase assay, Kinase HotSpot. The note with it: compound 0.5 µM; ATP 10 µM.
Regarding `CS(=O)c1ccc(-c2nc(-c3ccc(F)cc3)c(-c3ccncc3)[nH]2)cc1` (stereo not given), the residual activity (as a rule, the signal under treatment as a percentage of the control signal) was 97.3%.

With `COc1cc2ncc(-c3ccccc3)nc2cc1OC`, the residual activity turned out to be 88.5%.

As for `O=C(Nc1ccc(Cl)cc1)c1ccccc1NCc1ccncc1`, the residual activity was determined as 96%.

For `Cc1[nH]c(/C=C2\C(=O)Nc3ccc(S(=O)(=O)N(C)c4cccc(Cl)c4)cc32)c(C)c1C(=O)N1CCN(C)CC1`, the residual activity was 103%.

As to `Cn1cnc2cc3c(Nc4cccc(Br)c4)ncnc3cc21`, the residual activity was determined as 115%.

As to `COc1ccc(OC)c2c(=S)c3ccccc3[nH]c12`, the residual activity came out at 125%.

As for `COc1ccc2c(c[n+](C)c3c4cc5c(cc4ccc23)OCO5)c1OC`, the residual activity amounted to 118%.

`NC(=O)c1cccc(-c2cc(Nc3ccc(OC(F)(F)F)cc3)ncn2)c1`: the residual activity is 101%.

On to `COc1cc2ncnc(Nc3ccc(OCc4ccccc4)cc3)c2cc1OC`, for which the residual activity was 103%.

Regarding `O=C1Cc2c([nH]c3ccc([N+](=O)[O-])cc23)-c2ccccc2N1`, the residual activity came to 96%.

As to `N#C/C(=C\c1ccc(O)c(O)c1)C(=O)NCc1ccccc1`, the residual activity amounted to 103%.

As to `CCCCc1c(-c2ccc(OC)cc2)[nH]c2nccnc12`, the residual activity came out at 88.4%.

In the case of `COc1ccc(COc2ccc(Cc3cnc(N)nc3N)cc2OC)cc1`, the residual activity came to 97.9%.

Regarding `COc1cc2ncnc(Nc3ccc(Oc4ccccc4)cc3)c2cc1OC`, the residual activity came to 103%.

Take `CCn1cnc2c(Nc3cccc(Cl)c3)nc(N[C@@H]3CCCC[C@@H]3N)nc21`: the residual activity is 120%.

In the case of `CN(C)S(=O)(=O)c1ccc2c(c1)/C(=C/c1cc3c([nH]1)CCCC3)C(=O)N2`, the residual activity stood at 105%.

As to `CCCNC(=O)Nc1ccc(Oc2ncnc3cc(OC)c(OC)cc23)cc1Cl`, the residual activity came to 96.2%.

`COc1ccc(S(=O)(=O)N(CCO)c2ccccc2CN(C)C/C=C/c2ccc(Cl)cc2)cc1`: the residual activity was determined as 103%.

With `CC(C)N(CCC(=O)c1ccc2ccccc2c1)Cc1ccccc1`, the residual activity worked out at 101%.

For the compound `CCN(CC)CCNC(=O)c1c(C)[nH]c(/C=C2\C(=O)Nc3ccc(F)cc32)c1C`, the residual activity stood at 62.8%.

With `CO[C@H]1CC2CC[C@@H](C)[C@@](O)(O2)C(=O)C(=O)N2CCCC[C@H]2C(=O)OC([C@H](C)C[C@@H]2CC[C@@H](O)[C@H](OC)C2)CC(=O)[C@H](C)/C=C(\C)[C@@H](O)[C@@H](OC)C(=O)[C@H](C)C[C@H](C)/C=C/C=C/C=C/1C` (stereo not given in full), the residual activity was determined as 101%.

Regarding `Nc1cccc(-c2cc3c(Oc4cccc(O)c4)ncnc3[nH]2)c1`, the residual activity came out at 101%.

On to `O=C1c2ccccc2-c2nc3nnnn3nc21`, for which the residual activity was determined as 67.2%.

In the case of `O=C1NC(=O)/C(=C/c2ccc3c(c2)OC(F)(F)O3)S1`, the residual activity turned out to be 102%.

Regarding `COc1ccc(C(=O)Nc2sc3c(c2C(N)=O)CCCC3)cc1OC`, the residual activity turned out to be 98.7%.

For the compound `CC(=O)c1ccc(N2CCOCC2)cc1O`, the residual activity stood at 97.2%.

With `CS(=O)(=O)CCNCc1ccc(-c2ccc3ncnc(Nc4ccc(OCc5cccc(F)c5)c(Cl)c4)c3c2)o1`, the residual activity was found to be 128%.

Regarding `CC[n+]1c(/C=C/N(C)c2ccccc2)n(-c2ccccc2)c2ccc(-c3nc4ccccc4s3)cc21`, the residual activity amounted to 97.2%.

Regarding `COc1ccc(CNC(=O)Nc2ncc([N+](=O)[O-])s2)cc1`, the residual activity was found to be 105%.

With `O=C1NC(=O)C(c2c[nH]c3ccccc23)=C1c1c[nH]c2ccccc12`, the residual activity is 105%.

Regarding `CC[C@@H](CO)Nc1nc(NCc2ccccc2)c2ncn(C(C)C)c2n1`, the residual activity was 120%.

With `Cc1cncc2cccc(S(=O)(=O)N3CCCN(C(=O)CN)C[C@H]3C)c12`, the residual activity came out at 103%.

Consider `COc1cc2nccc(Oc3ccc(NC(=S)NC(=O)c4ccccc4C)cc3)c2cc1OC`, for which the residual activity worked out at 101%.

With `CN(C)c1ccc(/C=C2\C(=O)Nc3ccccc32)cc1`, the residual activity is 93.1%.

On to `CC(C)[C@H](CO)Nc1nc(Nc2cc(N)cc(Cl)c2)c2ncn(C(C)C)c2n1`, for which the residual activity is 93.1%.

Turning to `O=c1cc(N2CCOCC2)oc2c1ccc1ccccc12`, the residual activity amounted to 98%.

Regarding `c1ccc(-c2n[nH]cc2-c2ccnc3ccccc23)nc1`, the residual activity came out at 103%.

Consider `CC#CC(=O)Nc1cc2c(Nc3ccc(F)c(Cl)c3)ncnc2cn1`, for which the residual activity turned out to be 95.6%.

As for `COc1ccc2c(c1)c(C1=C(c3c[nH]c4ccccc34)C(=O)NC1=O)cn2CCCN(C)C`, the residual activity was 99.5%.

Turning to `Nc1nccc(-c2c(-c3ccc(F)cc3)ncn2C2CCNCC2)n1`, the residual activity worked out at 97.4%.

`Cc1cccc(-c2nc(C(C)(C)C)[nH]c2-c2ccc3c(c2)OCO3)n1`: the residual activity was 99.6%.

With `CCC(=O)Nc1ccc2ncnc(Nc3cccc(Br)c3)c2c1`, the residual activity amounted to 84.6%.

Take `Nc1nc(Nc2ccc(S(N)(=O)=O)cc2)nn1C(=S)Nc1c(F)cccc1F`: the residual activity was found to be 48.7%.

Regarding `CSc1nc(-c2ccc(F)cc2)c(-c2ccnc(NC(C)c3ccccc3)c2)[nH]1` (stereo not given), the residual activity turned out to be 97.3%.

Take `COc1ccc(Cl)cc1NC(=O)Nc1cc(C)nc2ccccc12`: the residual activity was 94.7%.

For the compound `Cc1ccc(NC(=O)c2ccc(CN3CCN(C)CC3)cc2)cc1Nc1nc(-c2cccnc2)cs1`, the residual activity worked out at 111%.

As for `O=c1cc(N2CCNCC2)oc2c(-c3ccccc3)cccc12`, the residual activity was determined as 103%.

For the compound `Nc1ncnc2[nH]nc(Nc3ccc(F)cc3)c12`, the residual activity is 91.5%.

Regarding `CC(C)n1cnc2c(Nc3cccc(Cl)c3)nc(NCCO)nc21`, the residual activity turned out to be 115%.

Regarding `Nc1ccc2ncnc(NCCc3ccc(Oc4ccccc4)cc3)c2c1`, the residual activity stood at 104%.

As for `O=C1NC(=O)c2c1c1c3ccccc3n3c1c1c2c2ccccc2n1C1CCC3O1`, the residual activity worked out at 23.8%.

`c1ccc(-c2n[nH]c3c2oc2ccccc23)cc1`: the residual activity was 101%.

Take `O=C1C(Cl)=C(N2C(=O)CCC2=O)C(=O)c2ccccc21`: the residual activity came to 104%.

On to `CC(=O)O/N=C1\C(=C2\C(=O)Nc3cc(Br)ccc32)Nc2ccccc21`, for which the residual activity is 81.8%.

Consider `O=C(O)/C=C/c1cc(Br)c(Br)c(Br)c1Br`, for which the residual activity was found to be 76.7%.

Consider `O=c1cc(-c2cccc3c2Sc2ccccc2S3)oc(N2CCOCC2)c1`, for which the residual activity turned out to be 90.6%.

Turning to `Nc1ncnc2c1c(-c1ccc(Oc3ccccc3)cc1)cn2C1CCCC1`, the residual activity was 103%.

With `CNc1cc2c(Nc3cccc(Br)c3)ncnc2cn1`, the residual activity turned out to be 94.4%.

Consider `N#Cc1c[nH]c2c[nH]/c(=N\Cc3cccnc3)cc2/c1=N\c1ccc(F)c(Cl)c1`, for which the residual activity turned out to be 93.2%.

Consider `COc1cc2ncnc(N3CCN(C(=O)Nc4ccc(Oc5ccccc5)cc4)CC3)c2cc1OC`, for which the residual activity was determined as 99.8%.

In the case of `O=C1Nc2ccccc2/C1=C\c1c(Cl)[nH]c2ccccc12`, the residual activity turned out to be 116%.

Regarding `CC(C)c1nn(-c2c(Cl)cccc2Cl)c2nc(Cc3ccc(OCCO)cc3)nc(O)c12`, the residual activity is 118%.

With `c1ccc2c(-c3ccncc3)c[nH]c2c1`, the residual activity was 93.8%.

Take `CCN(CC)C(=O)c1ccc(Nc2nc(OCC3CCCCC3)c3nc[nH]c3n2)cc1`: the residual activity stood at 84.7%.

As to `O=C1Nc2ccccc2/C1=C1\Nc2ccccc2\C1=N/O`, the residual activity was found to be 69.1%.
